ChEMBL document CHEMBL3885861, “Open TG-GATES”

Species: Rattus norvegicus
Assay: Open TG-GATES - Regimen: Daily Repeat
Assay type: toxicity, organism-based, Sprague-Dawley
Set-up: regimen Daily Repeat, gender Male, age 6 weeks
Conditions: in vivo, po, route gavage; for A/G / ALP / ALT / AST / BUN / CRE / Ca / Cl / DBIL / GLC / IP / K / LDH / Na / PL / RALB / TBIL / TC / TG / TP / gamma-GTP: tissue Plasma; for APTT / Bas / Eos / Fbg / Hb / Ht / Lym / MCH / MCHC / MCV / Mono / Neu / PT / Plat / RBC / Ret / WBC: tissue Blood; for KIDNEY_L / KIDNEY_R / KIDNEY_TOTAL: tissue Kidney; for LIVER: tissue Liver
[1] = 0 mg/kg, […], dose level Control, time 28 day
[2] = 1 mg/kg, 72 h, dose level Low, time 3 day
[3] = 1 mg/kg, […], dose level Low, time 7 day
[4] = 1 mg/kg, […], dose level Low, time 14 day
[5] = 1 mg/kg, […], dose level Low, time 28 day

`COc1ccc2c(c1)c(CC(=O)O)c(C)n2C(=O)c1ccc(Cl)cc1` [INDOMETHACIN] was tested, and the A/G [1] was 1.9, the ALP [1] was 622.6 IU/L and the ALT [1] was 27.6 IU/L. For the same molecule, the AST [1] was 56.2 IU/L, the BUN [1] was 18.8 mg/dL and the CRE [1] was 0.7 mg/dL. The Ca [1] was 10.7 mg/dL, the Cl [1] was 105.2 meq/L and the DBIL [1] was 0.018 mg/dL. It also gave a GLC [1] of 206.4 mg/dL, an IP [1] of 7.5 mg/dL and a K [1] of 4.1 meq/L. The LDH [1] was 62.4 IU/L, the Na [1] was 139.2 meq/L and the PL [1] was 163.2 mg/dL. It also gave an RALB [1] of 4.3 g/dL, a TBIL [1] of 0.3 mg/dL and a TC [1] of 79.6 mg/dL. It also gave a TG [1] of 181.2 mg/dL, a TP [1] of 6.6 g/dL and a gamma-GTP [1] of 1.8 IU/L. It also gave a TERMINAL_BW [2] of 239.1 g, an APTT [2] of 16.8 s and a Bas [2] of 0%. It also gave an Eos [2] of 0.4%, a Fbg [2] of 230.8 mg/dL and a Hb [2] of 13.6 g/dL. For the same molecule, the Ht [2] was 40.7%, the Lym [2] was 79% and the MCH [2] was 21.7 pg. It also gave an MCHC [2] of 33.5%, an MCV [2] of 65 fL and a Mono [2] of 7.6%. For the same molecule, the Neu [2] was 12.8%, the PT [2] was 10.9 s and the Plat [2] was 102.8 x10_4/uL. For the same molecule, the RBC [2] was 626.4 x10_4/ul, the Ret [2] was 7% and the WBC [2] was 89 x10_2/uL. For the same molecule, the KIDNEY_L [2] was 1.1 g, the KIDNEY_R [2] was 1.1 g and the KIDNEY_TOTAL [2] was 2.2 g. It also gave an LIVER [2] of 11.8 g, an A/G [2] of 1.9 and an ALP [2] of 1210.2 IU/L. It also gave an ALT [2] of 35.2 IU/L, an AST [2] of 64.4 IU/L and a BUN [2] of 16.8 mg/dL. It also gave a CRE [2] of 0.6 mg/dL, a Ca [2] of 10.6 mg/dL and a Cl [2] of 105.8 meq/L. It also gave a DBIL [2] of 0.032 mg/dL, a GLC [2] of 196.6 mg/dL and an IP [2] of 7.9 mg/dL. It also gave a K [2] of 4.9 meq/L, an LDH [2] of 91.4 IU/L and a Na [2] of 138.8 meq/L. It also gave a PL [2] of 165.2 mg/dL, an RALB [2] of 3.9 g/dL and a TBIL [2] of 0.3 mg/dL. The TC [2] was 86 mg/dL, the TG [2] was 108 mg/dL and the TP [2] was 5.9 g/dL. It also gave a gamma-GTP [2] of 1.2 IU/L, a TERMINAL_BW [3] of 272.4 g and a TERMINAL_BW [4] of 337.2 g. For the same molecule, the TERMINAL_BW [5] was 425.7 g, the APTT [3] was 16.3 s and the Bas [3] was 0%. The Eos [3] was 0.6%, the Fbg [3] was 240.2 mg/dL and the Hb [3] was 13.8 g/dL. For the same molecule, the Ht [3] was 41.9%, the Lym [3] was 82.8% and the MCH [3] was 21.1 pg. For the same molecule, the MCHC [3] was 33.1%, the MCV [3] was 63.9 fL and the Mono [3] was 7.2%. It also gave a Neu [3] of 9.2%, a PT [3] of 11.7 s and a Plat [3] of 121.9 x10_4/uL. For the same molecule, the RBC [3] was 656.8 x10_4/ul, the Ret [3] was 7.2% and the WBC [3] was 124.3 x10_2/uL. For the same molecule, the APTT [4] was 16.5 s, the Bas [4] was 0% and the Eos [4] was 0.8%. It also gave a Fbg [4] of 232.4 mg/dL, a Hb [4] of 14.4 g/dL and a Ht [4] of 43.4%. For the same molecule, the Lym [4] was 85.4%, the MCH [4] was 19.8 pg and the MCHC [4] was 33.1%. The MCV [4] was 59.8 fL, the Mono [4] was 4.8% and the Neu [4] was 9%. For the same molecule, the PT [4] was 11.6 s, the Plat [4] was 119.2 x10_4/uL and the RBC [4] was 726.6 x10_4/ul. For the same molecule, the Ret [4] was 4.3%, the WBC [4] was 140.8 x10_2/uL and the APTT [5] was 16.4 s. The Bas [5] was 0%, the Eos [5] was 0.8% and the Fbg [5] was 249.8 mg/dL. For the same molecule, the Hb [5] was 15.2 g/dL, the Ht [5] was 45.7% and the Lym [5] was 83.6%. For the same molecule, the MCH [5] was 19.1 pg, the MCHC [5] was 33.2% and the MCV [5] was 57.5 fL. The Mono [5] was 5.6%, the Neu [5] was 10.6% and the PT [5] was 11.8 s. For the same molecule, the Plat [5] was 113.7 x10_4/uL, the RBC [5] was 795.8 x10_4/ul and the Ret [5] was 2.7%. It also gave a WBC [5] of 149.8 x10_2/uL, a KIDNEY_L [3] of 1.1 g and a KIDNEY_R [3] of 1.1 g. For the same molecule, the KIDNEY_TOTAL [3] was 2.3 g, the KIDNEY_L [4] was 1.3 g and the KIDNEY_R [4] was 1.3 g. The KIDNEY_TOTAL [4] was 2.6 g, the KIDNEY_L [5] was 1.4 g and the KIDNEY_R [5] was 1.4 g. It also gave a KIDNEY_TOTAL [5] of 2.8 g, an LIVER [3] of 13.5 g and an LIVER [4] of 16.3 g. For the same molecule, the LIVER [5] was 18.6 g, the A/G [3] was 2.1 and the ALP [3] was 892.6 IU/L. It also gave an ALT [3] of 30.2 IU/L, an AST [3] of 61.4 IU/L and a BUN [3] of 20 mg/dL. It also gave a CRE [3] of 0.5 mg/dL, a Ca [3] of 11 mg/dL and a Cl [3] of 105.6 meq/L. For the same molecule, the DBIL [3] was 0.006 mg/dL, the GLC [3] was 193.2 mg/dL and the IP [3] was 8.2 mg/dL. The K [3] was 4.9 meq/L, the LDH [3] was 89.2 IU/L and the Na [3] was 139.4 meq/L. The PL [3] was 156.6 mg/dL, the RALB [3] was 4 g/dL and the TBIL [3] was 0.4 mg/dL. The TC [3] was 77.4 mg/dL, the TG [3] was 149.6 mg/dL and the TP [3] was 6 g/dL. The gamma-GTP [3] was 1.4 IU/L.
